Source: ChEMBL document CHEMBL4842382, “Fragment-Based Discovery of Small Molecules Bound to T-Cell Immunoglobulin and Mucin Domain-Containing Molecule 3 (TIM-3)” (J Med Chem, 2021)

Target: T1, Hepatitis A virus cellular receptor 2 (Homo sapiens, UniProt Q8TDQ0)
T1 sequence (Q8TDQ0 whole entry): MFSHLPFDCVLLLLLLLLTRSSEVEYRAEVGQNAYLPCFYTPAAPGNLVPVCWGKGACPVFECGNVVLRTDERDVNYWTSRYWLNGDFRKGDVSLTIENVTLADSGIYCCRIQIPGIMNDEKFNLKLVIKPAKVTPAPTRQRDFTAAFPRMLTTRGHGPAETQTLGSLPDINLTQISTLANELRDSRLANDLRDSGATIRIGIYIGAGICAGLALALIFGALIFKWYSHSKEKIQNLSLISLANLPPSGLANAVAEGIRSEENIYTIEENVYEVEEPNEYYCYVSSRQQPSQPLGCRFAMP
Conditions: not given

Row | Compound | Kd
1 | O=C1CC(c2ccccc2)c2cc3c(cc2N1)OCO3 (stereo not drawn) | > 2000 µM
2 | Sc1nc2cc(Cl)ccc2[nH]1 | 670 µM
3 | CN(C)CCn1c(=S)[nH]c2ccccc2c1=O | 530 µM
4 | Cc1nc2c3cc(-c4ccncc4C)c(Cl)cc3[nH]c(=O)n2n1 | 10 µM
5 | Cc1cccc(Nc2cc(=O)n(C)c(=O)n2C)c1 | 1400 µM
6 | Cc1ccc(Nc2ncnc3c2cnn3C)cc1 | 850 µM
7 | Oc1nc2ccccc2c2nc(-c3ccccc3)nn12 | > 2000 µM
8 | Cc1cc(-c2nc3ncccc3o2)ccc1N | 460 µM

Tested on: not listed separately
Assay: Aqueous solubility of the compound
Assay type: physicochemical
Conditions: buffer

Row | Compound | solubility
9 | Cc1nc2c3cc(-c4ccncc4C)ccc3[nH]c(=O)n2n1 | Insoluble
10 | Oc1nc2ccccc2c2nc(-c3ccccc3)nn12 | Insoluble
11 | Cc1nc2c3cc(Br)ccc3[nH]c(=O)n2n1 | Insoluble

Target: T1, Hepatitis A virus cellular receptor 2
Assay: Displacement of FITC-labelled 5-(((8-Chloro-9-(3-methylpyridin-4-yl)-5-oxo-5,6-dihydro-[1,2,4]triazolo[1,5-c]quinazolin-2-yl)methyl)carbamoyl)-2-(6-hydroxy-3-oxo-3H-xanthen-9-yl)benzoic acid probe from human TIM-3 IgV domain (residues 22 to 130) expressed in Escherichia coli BL21 (DE3) by FPA competition assay
Conditions: not given

Row | Compound | IC50 | Ki
12 | Cc1nc2c3cc(-c4ccncc4C)c(Cl)cc3[nH]c(=O)n2n1 | 53 µM | 4.9 µM
